Laboratory results: patent US20260327234A1, “NOVEL COMPOUNDS AS CYP11A1 INHIBITORS AND METHODS OF USE THEREOF” (Shenzhen Ionova Life Science Co., Ltd., priority 2023, published 2026)

How the values were obtained:
[1] = biological target: T1, testosterone (T) production in NCI-H295R cells (Homo sapiens, UniProt P05108); experiment: H295R Steroid Biosynthesis Inhibition Assay - inhibition of testosterone (T) production in NCI-H295R cells; format: cell-based; details: 48 h, LC-MS/MS, read-out: Inh. of T IC50
T1 construct: testosterone measured by LC-MS/MS as downstream steroid
T1 sequence (P05108 40-521): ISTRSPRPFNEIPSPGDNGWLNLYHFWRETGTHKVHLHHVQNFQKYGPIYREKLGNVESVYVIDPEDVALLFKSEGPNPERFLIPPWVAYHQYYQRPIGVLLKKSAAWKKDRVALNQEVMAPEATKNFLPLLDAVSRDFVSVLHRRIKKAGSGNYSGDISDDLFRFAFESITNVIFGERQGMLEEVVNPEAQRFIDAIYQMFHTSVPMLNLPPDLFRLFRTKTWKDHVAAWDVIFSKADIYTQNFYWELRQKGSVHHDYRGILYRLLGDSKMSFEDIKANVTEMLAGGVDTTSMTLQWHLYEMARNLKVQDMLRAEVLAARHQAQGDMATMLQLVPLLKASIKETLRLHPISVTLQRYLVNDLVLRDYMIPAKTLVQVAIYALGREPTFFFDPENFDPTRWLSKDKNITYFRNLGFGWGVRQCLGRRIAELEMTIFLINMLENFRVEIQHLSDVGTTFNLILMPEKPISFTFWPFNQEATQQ
Experimental: (§1) Steroid Biosynthesis Inhibition by test compounds in NCI-H295R cells (ATCC) was studied by measuring the cellular production of pregnenolone (P) catalyzed by CYP11A1 and the downstream steroid, testosterone (T). Cells were cultured in Dulbecco's modified eagle's medium F12 (DMEM/F12) with phenol red (Gibco, Cat. No. 11330032) supplemented with 2% UltroserG (Pall, Cat. No. 15950-017, USA), 1% ITS-Premix and 1% penicillin and streptomycin (Hyclone, Cat. No. SV30010, USA). Prior to the assay, cells were thawed and passed 4 times. The maximal passage number used for the assay was 10. For this assay, DMEM/F12 without phenol red supplemented with 10% charcoal-stripped fetal bovine serum (VivaCell, Cat. No. C3830-0500, USA) were used. In a 96-well plate, 60,000 cells/well were plated (90 μL/well) and incubated for 24 h. Test compounds, diluted in a serial dilution ranging from 1000 nM to 0.15 nM in the assay medium, were added to the plate. After 48 h of incubation, solution from each well were collected and transferred to individual 1.5 mL centrifuge tubes, and then 5 ng/mL deuterated testosterone (D3-testosterone) and 50 ng/mL deuterated pregnenolone (D4-pregnenolone) in 200 μL acetonitrile were added. After vigorously mixing for 5 min, the mixture was centrifuged at 12,700 rpm for 15 min. An aliquot of 250 μL supernatant was collected and dried under N2 stream. After addition of 150 μL Methanol:water (1:1, v/v) to the dried product, 50 μL sample of this solution was injected into the LC-MS/MS system for analysis.
(§2) The half-maximal inhibitory concentration (IC50) for steroid biosynthesis inhibition was determined by curve-fitting with the 4-variable inhibitory dose response equation using GraphPad Prism software.
(§3) Testosterone and pregnenolone were analyzed using Shimadzu LC30AD HPLC system (Shimadzu, Kyoto, Japan) coupled with AB SCIEX Qtrap 5500 triple quadrupole mass spectrometer (AB Sciex, Framingham, MA, USA) via ESI interface in the positive ionization mode. An ACQUITY UPLC BEH Shield RP18 column (1.7 μm, 2.1×50 mm, Milford, MA, USA) maintained at 40° C. was used to separate analytes and IS form the sample matrix.
(§4) The mobile phase was a mixture of 10 mM ammonium acetate in water containing 0.2% formic acid (A) and methanol containing 0.2% formic acid (B) at a flow rate of 0.6 mL/min. The gradient program was set as follows: from 0 min to 0.5 min, 60% B; from 0.5 min to 3.5 min, 90% B; from 3.5 min to 4.5 min, 90% B; from 4.51 min to 5.0 min, 60% B. The injection volume was […].
(§5) The MS/MS parameters were set as follows: ion spray voltage, 5500 V; curtain gas, 35 psi; Gas 1, 55 psi; Gas 2: 55 psi; temperature, […]. The optimized multiple reaction monitoring (MRM) fragmentation transitions and MS parameters of each analyte are summarized in Table 1.

CYP11A1 = biological target: T2, CYP11A1 (Homo sapiens, UniProt P05108); experiment: H295R Steroid Biosynthesis Inhibition Assay - inhibition of pregnenolone (P) production catalyzed by CYP11A1 in NCI-H295R cells; format: cell-based; details: 48 h, LC-MS/MS, read-out: Inh. of P IC50
T2 construct: measuring the cellular production of pregnenolone (P) catalyzed by CYP11A1; host or cells: NCI-H295R
T2 sequence (P05108 40-521): T1 sequence (P05108 40-521)
Experimental: as §1, §2, §3, §4, §5

| IC50 [1] [nM] | IC50 (CYP11A1) [nM] | Compound |
| --- | --- | --- |
| ≤ 40 | ≤ 40 | CC(C)S(=O)(=O)N1CCC(c2cnc3cc(CN4Cc5ccccc5C4)ccc3n2)CC1 [Compound 94] |
| ≤ 40 | ≤ 40 | O=S(=O)(C1CC1)N1CCC(c2cnc3cc(CN4Cc5ccccc5C4)ccc3n2)CC1 [Compound 95] |
| ≤ 40 | ≤ 40 | O=S(=O)(C1CCCC1)N1CCC(c2cnc3cc(CN4Cc5ccccc5C4)ccc3n2)CC1 [Compound 96] |
| ≥ 101 | 40 to 100 | O=S(=O)(N1CCC(c2cnc3cc(CN4Cc5ccccc5C4)ccc3n2)CC1)C(F)(F)F [Compound 97] |
| ≤ 40 | ≤ 40 | O=S(=O)(c1ccccc1)N1CCC(c2cnc3cc(CN4Cc5ccccc5C4)ccc3n2)CC1 [Compound 98] |
| 41 to 100 | 40 to 100 | CN(C)S(=O)(=O)N1CCC(c2cnc3cc(CN4Cc5ccccc5C4)ccc3n2)CC1 [Compound 99] |
| ≤ 40 | ≤ 40 | CNS(=O)(=O)N1CCC(c2cnc3cc(CN4Cc5ccccc5C4)ccc3n2)CC1 [Compound 100] |
| ≥ 101 | ≥ 100 | CC(=O)N1CCC(c2cnc3cc(CN4Cc5ccccc5C4)ccc3n2)CC1 [Compound 101] |
| 41 to 100 | 40 to 100 | O=C(C1CC1)N1CCC(c2cnc3cc(CN4Cc5ccccc5C4)ccc3n2)CC1 [Compound 102] |
| ≥ 101 | 40 to 100 | O=C(C(F)F)N1CCC(c2cnc3cc(CN4Cc5ccccc5C4)ccc3n2)CC1 [Compound 103] |
| ≥ 101 | 40 to 100 | O=C(c1ccccc1)N1CCC(c2cnc3cc(CN4Cc5ccccc5C4)ccc3n2)CC1 [Compound 104] |
| ≥ 101 | 40 to 100 | O=C(c1ncccn1)N1CCC(c2cnc3cc(CN4Cc5ccccc5C4)ccc3n2)CC1 [Compound 105] |
| ≥ 101 | ≤ 40 | Cn1ccc(C(=O)N2CCC(c3cnc4cc(CN5Cc6ccccc6C5)ccc4n3)CC2)n1 [Compound 106] |
| ≥ 101 | 40 to 100 | O=C(c1ncc[nH]1)N1CCC(c2cnc3cc(CN4Cc5ccccc5C4)ccc3n2)CC1 [Compound 107] |
| ≥ 101 | 40 to 100 | Cn1ccnc1C(=O)N1CCC(c2cnc3cc(CN4Cc5ccccc5C4)ccc3n2)CC1 [Compound 108] |
| 41 to 100 | 40 to 100 | O=C(c1nccs1)N1CCC(c2cnc3cc(CN4Cc5ccccc5C4)ccc3n2)CC1 [Compound 109] |
| ≤ 40 | ≤ 40 | COC(=O)N1CCC(c2cnc3cc(CN4Cc5ccccc5C4)ccc3n2)CC1 [Compound 110] |
| ≤ 40 | ≤ 40 | CCOC(=O)N1CCC(c2cnc3cc(CN4Cc5ccccc5C4)ccc3n2)CC1 [Compound 111] |

| IC50 [1] [nM] | IC50 (CYP11A1) [nM] | Compound |
| --- | --- | --- |
| 41 to 100 | 40 to 100 | CC(C)OC(=O)N1CCC(c2cnc3cc(CN4Cc5ccccc5C4)ccc3n2)CC1 [Compound 112] |
| 41 to 100 | 40 to 100 | CC(C)(C)OC(=O)N1CCC(c2cnc3cc(CN4Cc5ccccc5C4)ccc3n2)CC1 [Compound 113] |
| ≤ 40 | ≤ 40 | O=C(OC1CCCC1)N1CCC(c2cnc3cc(CN4Cc5ccccc5C4)ccc3n2)CC1 [Compound 114] |
| ≤ 40 | ≤ 40 | CNC(=O)N1CCC(c2cnc3cc(CN4Cc5ccccc5C4)ccc3n2)CC1 [Compound 115] |
| ≥ 101 | 40 to 100 | CCNC(=O)N1CCC(c2cnc3cc(CN4Cc5ccccc5C4)ccc3n2)CC1 [Compound 116] |
| ≥ 101 | 40 to 100 | CC(C)NC(=O)N1CCC(c2cnc3cc(CN4Cc5ccccc5C4)ccc3n2)CC1 [Compound 117] |
| ≥ 101 | ≥ 100 | O=C(NC1COC1)N1CCC(c2cnc3cc(CN4Cc5ccccc5C4)ccc3n2)CC1 [Compound 118] |
| 41 to 100 | ≤ 40 | CC(C)(C)NC(=O)N1CCC(c2cnc3cc(CN4Cc5ccccc5C4)ccc3n2)CC1 [Compound 119] |
| 41 to 100 | ≤ 40 | O=C(NCC(F)(F)F)N1CCC(c2cnc3cc(CN4Cc5ccccc5C4)ccc3n2)CC1 [Compound 120] |
| 41 to 100 | ≤ 40 | CN(C)C(=O)N1CCC(c2cnc3cc(CN4Cc5ccccc5C4)ccc3n2)CC1 [Compound 121] |
| ≥ 101 | ≥ 100 | O=S1(=O)CCC(c2cnc3cc(CN4Cc5ccccc5C4)ccc3n2)CC1 [Compound 124] |
| ≥ 101 | ≥ 100 | CS(=O)(=O)N1CCC(c2cnc3cc(CN4CCn5cccc5C4)ccc3n2)CC1 [Compound 125] |
| ≤ 40 | ≤ 40 | CS(=O)(=O)N1CCC(c2cc3cc(CN4Cc5ccccc5C4)ccc3o2)CC1 [Compound 126] |
| ≤ 40 | ≤ 40 | O[C@H]1CC[C@H](c2nc3cc(CN4Cc5ccccc5C4)ccc3o2)CC1 [Compound 127] |
| 41 to 100 | ≤ 40 | CS(=O)(=O)N1CCC(c2nc3cc(CN4Cc5ccccc5C4)ccc3s2)CC1 [Compound 128] |
| ≥ 101 | ≤ 40 | Cn1c(C2CCN(S(C)(=O)=O)CC2)nc2cc(CN3Cc4ccccc4C3)ccc21 [Compound 129] |
| ≥ 101 | ≤ 40 | Cn1c(C2CCN(S(C)(=O)=O)CC2)nc2ccc(CN3Cc4ccccc4C3)cc21 [Compound 130] |
| ≤ 40 | ≤ 40 | CS(=O)(=O)N1CCC(n2cc3ccc(CN4Cc5ccccc5C4)cc3n2)CC1 [Compound 131] |
